Drawing on the Kinase Knowledgebase extract (Sharma et al. 2016), this text covers IC50 for four compounds.

The target in experiment [1] is EGFR (human) (UniProt P00533). As to conditions: hn5.
Experiment [2] deals with EGFR (human) (UniProt P00533).

Each structure is given as a SMILES string.

Sequence of EGFR (human) (P00533 whole entry, looked up): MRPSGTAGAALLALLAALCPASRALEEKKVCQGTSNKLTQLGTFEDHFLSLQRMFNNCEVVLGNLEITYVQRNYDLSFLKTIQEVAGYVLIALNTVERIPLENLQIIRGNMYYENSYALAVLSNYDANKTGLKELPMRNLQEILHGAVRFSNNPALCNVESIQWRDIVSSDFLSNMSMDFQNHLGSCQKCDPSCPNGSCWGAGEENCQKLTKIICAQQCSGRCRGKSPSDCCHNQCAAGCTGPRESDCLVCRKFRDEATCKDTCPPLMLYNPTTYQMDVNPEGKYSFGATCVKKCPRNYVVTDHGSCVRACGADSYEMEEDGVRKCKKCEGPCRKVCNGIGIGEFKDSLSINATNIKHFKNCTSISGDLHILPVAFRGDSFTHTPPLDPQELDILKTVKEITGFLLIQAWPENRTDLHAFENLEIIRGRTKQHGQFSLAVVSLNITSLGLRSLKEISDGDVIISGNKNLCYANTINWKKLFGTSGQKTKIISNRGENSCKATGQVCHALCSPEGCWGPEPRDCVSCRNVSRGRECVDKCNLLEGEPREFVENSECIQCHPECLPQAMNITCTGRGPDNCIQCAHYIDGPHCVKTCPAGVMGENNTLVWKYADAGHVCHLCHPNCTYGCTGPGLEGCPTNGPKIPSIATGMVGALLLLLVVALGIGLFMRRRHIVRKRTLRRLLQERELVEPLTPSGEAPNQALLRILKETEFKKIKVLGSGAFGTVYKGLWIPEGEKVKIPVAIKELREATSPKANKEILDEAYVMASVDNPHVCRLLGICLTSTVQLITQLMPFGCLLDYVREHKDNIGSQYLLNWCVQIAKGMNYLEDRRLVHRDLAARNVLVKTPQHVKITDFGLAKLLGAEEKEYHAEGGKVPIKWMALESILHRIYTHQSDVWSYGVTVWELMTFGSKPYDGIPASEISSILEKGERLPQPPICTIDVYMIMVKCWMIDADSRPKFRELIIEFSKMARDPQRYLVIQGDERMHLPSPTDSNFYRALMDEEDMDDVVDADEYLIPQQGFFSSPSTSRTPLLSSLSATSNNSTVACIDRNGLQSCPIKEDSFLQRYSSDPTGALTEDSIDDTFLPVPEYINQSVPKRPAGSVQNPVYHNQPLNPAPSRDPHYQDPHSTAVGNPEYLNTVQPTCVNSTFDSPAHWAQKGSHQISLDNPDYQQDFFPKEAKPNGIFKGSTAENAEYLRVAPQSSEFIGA

As a reminder, the IC50 is the midpoint of a concentration-inhibition curve. A high value points to weaker potency. `CN(CCO)c1cc2c(Nc3ccc4c(cnn4Cc4ccccc4)c3)ncnc2cn1`: the IC50 amounted to 300 nM in experiment [1] and 36 nM in experiment [2].

For the compound `CS(=O)(=O)CCNCc1ccc(-c2ccc3ncnc(Nc4ccc(S(=O)(=O)c5ccccc5)cc4)c3c2)o1`, the IC50 came to 1130 nM in experiment [1] and 29 nM in experiment [2].

In the case of `CS(=O)(=O)CCNCc1ccc(-c2cc3c(Nc4ccc(OCc5ccccc5)cc4)ncnc3cn2)o1`, the IC50 in experiment [1] was 430 nM; in experiment [2] it was 25 nM.

As for `Cc1nnc(-c2ccc3ncnc(Nc4ccc5c(cnn5Cc5cccc(F)c5)c4)c3c2)o1`, the values for the IC50 in experiment [1] and in experiment [2] were 830 nM and 26 nM, respectively.
